Results as given in patent publication US12692221B2 (priority 2024, dated 2026).
≈ marks a conversion by molar mass, not a printed value.

Experiments:
μ (MOP) (h) = molecular target: T1, μ (MOP) (h) (Homo sapiens, UniProt P35372); assay: Radioligand binding μ (MOP) (h) (agonist radioligand), [^3H]DAMGO, HEK-293 cells
T1 construct: expressed in transfected cells; host or cells: HEK-293 cells
Method: Methods—Binding Assays: In vitro binding assays were performed using human recombinant receptors expressed in mammalian cell lines. Receptors were expressed in either HEK-293 or CHO cells depending on the target, and assay conditions (radioligand, concentration, nonspecific competitor, temperature, and incubation time) were optimized for each receptor. All assays were conducted in triplicate, and specific binding was quantified by scintillation counting as the detection method for each listed assay.
Specific binding was expressed as a percentage of control-specific binding, and percent inhibition was calculated using the formula in Ex. 8 above. Half-maximal inhibitory concentrations (IC50) were determined by non-linear regression analysis of the inhibition curves using the Hill equation (see Ex. 8). Inhibition constants (Ki) were calculated using the Cheng-Prusoff equation (see Ex. 8). KD values used in these calculations had been previously established for each receptor under the assay conditions (see Table 6). Data analysis was performed using software developed at Cerep and validated against SigmaPlot 4.0 for Windows.

MAO-A = molecular target: T2, MAO-A (Rattus norvegicus, UniProt P21396); assay: Radioligand binding MAO-A (antagonist radioligand), [^3H]Ro 41-1049, rat cerebral cortex
T2 construct: from tissue; host or cells: rat cerebral cortex
T2 sequence (P21396 1-526): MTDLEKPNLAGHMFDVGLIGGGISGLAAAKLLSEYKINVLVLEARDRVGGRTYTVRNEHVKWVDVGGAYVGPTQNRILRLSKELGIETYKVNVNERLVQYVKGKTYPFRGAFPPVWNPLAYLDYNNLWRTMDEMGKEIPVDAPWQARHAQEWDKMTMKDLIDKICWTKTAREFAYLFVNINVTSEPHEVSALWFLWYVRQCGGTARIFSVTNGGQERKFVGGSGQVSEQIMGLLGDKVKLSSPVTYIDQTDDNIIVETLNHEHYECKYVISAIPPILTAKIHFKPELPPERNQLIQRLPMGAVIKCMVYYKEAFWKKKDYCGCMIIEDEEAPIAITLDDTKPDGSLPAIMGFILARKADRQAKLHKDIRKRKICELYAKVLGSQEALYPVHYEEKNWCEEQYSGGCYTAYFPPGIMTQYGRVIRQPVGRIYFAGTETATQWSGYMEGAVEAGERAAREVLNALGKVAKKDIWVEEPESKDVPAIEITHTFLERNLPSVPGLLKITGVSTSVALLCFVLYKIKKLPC

COX1(h) = COX1(h) (Homo sapiens, UniProt P23219); assay: Enzyme assay COX1(h), arachidonic acid + ADHP, fluorimetry; type: biochemical
Method: Methods—Enzyme and Uptake Assays: In vitro enzyme and uptake assays were conducted by Eurofins Discovery using human recombinant enzymes expressed in various mammalian and insect cell lines. Enzymatic activity was measured using appropriate substrates or tracers under conditions optimized for each target, as detailed in Table 7. Reactions were incubated at room temperature for a defined duration and terminated according to established protocols. The measured components (either enzymatic products or remaining substrate) were quantified using fluorimetry, photometry, scintillation counting, or LANCE technology, depending on the assay. Assay-specific parameters, including substrate identity, cell line source, incubation time, and detection method, are provided in Table 7.
All measurements were performed in technical replicates to ensure reproducibility and data quality.
Results were expressed both as a percentage of control-specific activity and as percent inhibition of control-specific activity. Percent activity was calculated as (measured specific activity/control specific activity)×100, and percent inhibition as 100−[(measured specific activity/control specific activity)×100], based on values obtained in the presence of test compounds. IC50 and EC50 values, along with Hill coefficients (nH), were determined by nonlinear regression analysis of inhibition or concentration-response curves generated from mean replicate values. Hill curve fitting was performed as previously described using software developed at Cerep and validated against SigmaPlot® 4.0 for Windows® (© 1997 by SPSS Inc.).

[1] = Aqueous solubility by sequential dilution in water, microscopic inspection; conditions: for aqueous solubility relative to reference compound 2C-iBu: under the same conditions; for solubility: water, thermodynamic from solid
5-HT2C (h) = molecular target: T3, 5-HT2C (h) (Homo sapiens, UniProt P28335); assay: Radioligand binding 5-HT2C (h) (agonist radioligand), [^125I](±)DOI, HEK-293 cells
T3 construct: host or cells: HEK-293 cells
T3 sequence (P28335 33-458): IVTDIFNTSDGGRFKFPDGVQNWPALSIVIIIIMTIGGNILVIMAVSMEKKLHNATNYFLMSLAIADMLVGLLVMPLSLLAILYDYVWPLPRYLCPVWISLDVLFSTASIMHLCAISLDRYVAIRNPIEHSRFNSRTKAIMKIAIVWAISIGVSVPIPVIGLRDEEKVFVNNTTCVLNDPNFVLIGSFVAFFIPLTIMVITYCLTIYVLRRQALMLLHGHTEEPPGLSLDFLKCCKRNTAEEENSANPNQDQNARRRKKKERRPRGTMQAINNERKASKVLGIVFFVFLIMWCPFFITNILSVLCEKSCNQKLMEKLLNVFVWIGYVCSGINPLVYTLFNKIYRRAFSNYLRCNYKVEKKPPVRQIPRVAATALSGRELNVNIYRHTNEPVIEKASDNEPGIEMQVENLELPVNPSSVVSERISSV

5-HT2A (h) = molecular target: T4, 5-HT2A (h) (Homo sapiens, UniProt P28223); assay: Radioligand binding 5-HT2A (h) (agonist radioligand), [^125I](±)DOI, HEK-293 cells
T4 construct: host or cells: HEK-293 cells

5-HT2C = molecular target: T5, 5-HT2C (Homo sapiens, UniProt P28335); assay: cell-based; conditions: IP-1 accumulation
T5 construct: host or cells: HEK293

5-HT2B (h) = molecular target: T6, 5-HT2B (h) (Homo sapiens, UniProt P41595); assay: Radioligand binding 5-HT2B (h) (agonist radioligand), [^125I](±)DOI, CHO cells
T6 construct: host or cells: CHO cells
T6 sequence (P41595 whole entry): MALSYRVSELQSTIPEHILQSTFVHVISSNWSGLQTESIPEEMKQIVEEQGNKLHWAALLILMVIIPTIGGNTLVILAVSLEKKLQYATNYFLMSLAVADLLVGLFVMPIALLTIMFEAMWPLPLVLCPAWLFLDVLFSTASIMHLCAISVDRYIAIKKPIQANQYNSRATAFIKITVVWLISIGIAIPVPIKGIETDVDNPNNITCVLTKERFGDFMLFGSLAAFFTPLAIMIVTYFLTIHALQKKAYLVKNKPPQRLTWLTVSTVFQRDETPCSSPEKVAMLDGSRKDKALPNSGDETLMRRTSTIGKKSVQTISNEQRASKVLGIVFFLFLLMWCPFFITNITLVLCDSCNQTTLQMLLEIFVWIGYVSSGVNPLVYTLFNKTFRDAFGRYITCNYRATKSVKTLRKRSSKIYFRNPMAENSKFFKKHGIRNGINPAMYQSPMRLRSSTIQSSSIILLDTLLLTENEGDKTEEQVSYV

T1 sequence (P35372 whole entry): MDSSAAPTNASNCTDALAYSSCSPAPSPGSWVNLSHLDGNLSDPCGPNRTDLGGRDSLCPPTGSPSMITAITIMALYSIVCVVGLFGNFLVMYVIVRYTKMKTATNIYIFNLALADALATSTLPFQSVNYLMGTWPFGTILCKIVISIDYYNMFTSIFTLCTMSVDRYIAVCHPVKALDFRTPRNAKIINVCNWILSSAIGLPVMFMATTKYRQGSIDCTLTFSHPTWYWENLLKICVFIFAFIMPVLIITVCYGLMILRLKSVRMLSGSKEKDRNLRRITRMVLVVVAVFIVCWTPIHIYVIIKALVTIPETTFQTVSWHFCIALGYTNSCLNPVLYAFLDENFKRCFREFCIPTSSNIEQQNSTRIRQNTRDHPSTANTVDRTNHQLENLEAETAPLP
COX1(h), sequence (P23219 24-599): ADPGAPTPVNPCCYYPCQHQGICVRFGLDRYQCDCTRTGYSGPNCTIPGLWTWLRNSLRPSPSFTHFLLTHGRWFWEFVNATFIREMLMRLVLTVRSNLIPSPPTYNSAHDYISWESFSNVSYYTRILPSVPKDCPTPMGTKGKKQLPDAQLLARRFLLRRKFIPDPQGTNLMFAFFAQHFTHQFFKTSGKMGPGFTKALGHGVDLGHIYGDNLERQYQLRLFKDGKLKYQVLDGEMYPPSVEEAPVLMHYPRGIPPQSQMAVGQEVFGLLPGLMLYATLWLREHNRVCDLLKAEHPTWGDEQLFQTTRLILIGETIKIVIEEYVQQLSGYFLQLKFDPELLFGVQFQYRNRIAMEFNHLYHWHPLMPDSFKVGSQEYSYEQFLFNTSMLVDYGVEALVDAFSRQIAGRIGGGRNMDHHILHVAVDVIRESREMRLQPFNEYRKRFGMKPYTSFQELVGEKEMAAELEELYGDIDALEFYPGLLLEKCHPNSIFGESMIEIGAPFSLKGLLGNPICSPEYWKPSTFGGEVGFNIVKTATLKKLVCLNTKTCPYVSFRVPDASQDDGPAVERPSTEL
T4 sequence (P28223 whole entry, looked up): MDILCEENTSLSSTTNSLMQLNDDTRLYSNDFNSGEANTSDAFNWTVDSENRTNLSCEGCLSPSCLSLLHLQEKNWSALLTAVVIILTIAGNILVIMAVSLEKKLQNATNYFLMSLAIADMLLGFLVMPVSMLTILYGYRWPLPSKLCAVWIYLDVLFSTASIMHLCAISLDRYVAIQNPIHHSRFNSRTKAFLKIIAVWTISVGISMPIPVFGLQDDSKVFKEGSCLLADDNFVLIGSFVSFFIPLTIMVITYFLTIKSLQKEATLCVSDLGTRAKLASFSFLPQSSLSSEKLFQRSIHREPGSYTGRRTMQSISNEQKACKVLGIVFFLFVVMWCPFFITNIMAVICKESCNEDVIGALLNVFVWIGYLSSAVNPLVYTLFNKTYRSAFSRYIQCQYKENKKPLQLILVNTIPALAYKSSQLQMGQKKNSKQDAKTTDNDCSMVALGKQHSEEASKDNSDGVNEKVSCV

Structure (SMILES)	Mean Percent Inhibition of Control Specific Binding (μ (MOP) (h)) [%]	Mean Percent Inhibition of Control Specific Binding (MAO-A) [%]	Mean Percent Inhibition of Control Specific Binding (COX1(h)) [%]	aqueous solubility relative to reference compound 2C-iBu [1]	solubility [1] [mM]	Mean Percent Inhibition of Control Specific Binding (5-HT2C (h); 5-HT2C(h) (agonist radioligand)) [%]	Mean Percent Inhibition of Control Specific Binding (5-HT2A (h); 5-HT2A(h) (agonist radioligand)) [%]	EC50 (5-HT2C) [nM]	Mean Percent Inhibition of Control Specific Binding (5-HT2B (h); 5-HT2B(h) (agonist radioligand)) [%]	IC50 (5-HT2C (h)) [nM]	Ki (5-HT2C (h)) [nM]	nH (5-HT2C (h); 5-HT2C, Hill coefficient)	IC50 (5-HT2A (h)) [nM]	Ki (5-HT2A (h)) [nM]	nH (5-HT2A (h); 5-HT2A, Hill coefficient)	aqueous solubility relative to reference compound 2C-iBu ([1]; listed as Compound 8)	IC50 (5-HT2B (h)) [nM]	Ki (5-HT2B (h)) [nM]	nH (5-HT2B (h); 5-HT2B, Hill coefficient)
COCc1cc(CCN)c(O)cc1CC(C)C [2CiBu-2OH-5MM, 2-(2-aminoethyl)-5-isobutyl-4-(methoxymethyl)phenol]	24.4	7.0	−37.4	significantly higher aqueous solubility	110 (≈ 26.2 mg/mL)														
COCCc1cc(CCN)c(OC)cc1Br [Compound 2CB-5ME, reference compound]	28.6	5.4	−4.7			99.3	98.8	265	104.1										
COCc1cc(CCN)c(OC)cc1Br [Compound 2CB-5MM, 2-(4-bromo-2-methoxy-5-(methoxymethyl)phenyl)ethan-1-amine]	31.1	9.3	0.3		43.5 (≈ 11.9 mg/mL)			225											
COCc1cc(CCN)c(OC)cc1CC(C)C [Compound 2CiBu-5MM, 2-[4-isobutyl-2-methoxy-5-(methoxymethyl)phenyl]ethanamine]	31.5	4.1	13.8	significantly higher aqueous solubility	365 (≈ 91.7 mg/mL)					14	12	0.9	57	43	0.6	over ten times more soluble	270	130	0.7
